Our source for the melting point values is patent US20040063680A1, “Method of treating stroke” (priority 2003, published 2004).

SMILES strings stand for the structures.

What is called melting point is the temperature, or range, at which the solid turns liquid. Compound `CC(C)S(=O)(=O)NCC(C)(F)c1ccc(-c2ccc(CC#N)cc2)cc1` (stereo not shown) [Example 9, 2-{4-[4-(1-fluoro-1-methyl-2-{[(methylethyl)sulfonyl]amino}ethyl)phenyl]phenyl}ethanenitrile] displayed a melting point of 155 to 157 °C.
